Measurements as given in patent US20240165244A1 (Prelude Therapeutics Incorporated, priority 2022, published 2024).

Key:
[1] = target: T1, SMARCA2 (Homo sapiens, UniProt P51531); experiment: SMARCA2 HiBiT degradation assay in HeLa cells; assay type: cell-based; details: 18 hours, highest concentration 10 μM
T1 construct: SMARCA2-HiBiT knock-in Hela monoclonal cell (CS302366); host or cells: HeLa monoclonal cells with heterozygous HiBiT knock-in at the endogenous SMARCA2 locus
Procedure: (§1) SMARCA2 HiBiT and SMARCA4 HiBiT Degradation Assay
HiBiT peptide knock-in of SMARCA2 in LgBiT expressing HEK293T cells was performed by CRISPR-mediated tagging system as described Promega. The homozygous HiBiT knock-in on c-terminus SMARCA2 was confirmed by sanger sequence. SMARCA2-HiBiT knock-in Hela monoclonal cell (CS302366) and SMARCA4-HiBiT knock-in Hela monoclonal cell (CS3023226) were purchased from Promega. The heterozygous HiBiT-knock-in was confirmed by sanger sequence in both SMARCA2-HiBiT and SMARCA4-HiBiT monoclonal cells.
(§2) SMARCA2 HiBiT and SMARCA4 HiBiT Degradation Assay in HeLa Cells
Dispense 10 ul aliquot of prepared Hela-SMARCA2-HiBiT or Hela-SMARCA4-HiBiT cells (1:1 ratio of cells:Trypan Blue (#1450013, Bio-Rad)) onto cell counting slide (#145-0011, Bio-Rad) and obtain cell density and cell viability using cell counter (TC20, Bio-Rad). Remove appropriate volume of resuspended cells from culture flask to accommodate 2500 cells/well @ 20 μL/well. Transfer Hela-HiBiT cells to 50 mL conical (#430290, Corning). Spin down at 1000 rpm for 5 min using tabletop centrifuge (SPINCHRON 15, Beckman). Discard supernatant and resuspend cell pellet in modified EMEM (#30-2003, ATCC) cell culture media containing 10% FBS (F2422-500ML, Sigma), and 1× Penicillin/Streptomycin ([…]) (30-002-CI, Corning) to a cell density of 125,000 cells/mL. Dispense 20 μLof resuspended Hela-HiBit cells per well in 384-well TC treated plate (#12-565-343, Thermo Scientific) using standard cassette (#50950372, Thermo Scientific) on Multidrop Combi (#5840310, Thermo Scientific) inside laminar flow cabinet.
Compounds were dissolved in DMSO to make 10 mM stock and 3-fold series dilutions were further conducted keeping the highest concentration 10 μM. Dispense test compounds onto plates using digital liquid dispenser (D300E, Tecan). Incubate plates in humidified tissue culture incubator @37° C. for 18 hours. Add 20 μL of prepared Nano-Glo® HiBiT Lytic detection buffer (N3050, Promega) to each well of 384-well plate using small tube cassette (#24073295, Thermo Scientific) on Multidrop Combi, incubate @ RT for 30-60 min. Read plates on microplate reader (Envision 2105, PerkinElmer) using 384 well Ultra-Sensitive luminescence mode. Raw data files and compound information reports are swept into centralized data lake and deconvoluted using automated scripts designed by TetraScience, Inc. Data analysis, curve-fitting and reporting done in Dotmatics Informatics Suite using Screening Ultra module.

[2] = target: T2, SMARCA4 (Homo sapiens, UniProt P51532); experiment: SMARCA4 HiBiT degradation assay in HeLa cells; assay type: cell-based; details: 18 hours, highest concentration 10 μM
T2 construct: SMARCA4-HiBiT knock-in Hela monoclonal cell (CS3023226); host or cells: HeLa monoclonal cells with heterozygous HiBiT knock-in at the endogenous SMARCA4 locus
T2 sequence (P51532 whole entry): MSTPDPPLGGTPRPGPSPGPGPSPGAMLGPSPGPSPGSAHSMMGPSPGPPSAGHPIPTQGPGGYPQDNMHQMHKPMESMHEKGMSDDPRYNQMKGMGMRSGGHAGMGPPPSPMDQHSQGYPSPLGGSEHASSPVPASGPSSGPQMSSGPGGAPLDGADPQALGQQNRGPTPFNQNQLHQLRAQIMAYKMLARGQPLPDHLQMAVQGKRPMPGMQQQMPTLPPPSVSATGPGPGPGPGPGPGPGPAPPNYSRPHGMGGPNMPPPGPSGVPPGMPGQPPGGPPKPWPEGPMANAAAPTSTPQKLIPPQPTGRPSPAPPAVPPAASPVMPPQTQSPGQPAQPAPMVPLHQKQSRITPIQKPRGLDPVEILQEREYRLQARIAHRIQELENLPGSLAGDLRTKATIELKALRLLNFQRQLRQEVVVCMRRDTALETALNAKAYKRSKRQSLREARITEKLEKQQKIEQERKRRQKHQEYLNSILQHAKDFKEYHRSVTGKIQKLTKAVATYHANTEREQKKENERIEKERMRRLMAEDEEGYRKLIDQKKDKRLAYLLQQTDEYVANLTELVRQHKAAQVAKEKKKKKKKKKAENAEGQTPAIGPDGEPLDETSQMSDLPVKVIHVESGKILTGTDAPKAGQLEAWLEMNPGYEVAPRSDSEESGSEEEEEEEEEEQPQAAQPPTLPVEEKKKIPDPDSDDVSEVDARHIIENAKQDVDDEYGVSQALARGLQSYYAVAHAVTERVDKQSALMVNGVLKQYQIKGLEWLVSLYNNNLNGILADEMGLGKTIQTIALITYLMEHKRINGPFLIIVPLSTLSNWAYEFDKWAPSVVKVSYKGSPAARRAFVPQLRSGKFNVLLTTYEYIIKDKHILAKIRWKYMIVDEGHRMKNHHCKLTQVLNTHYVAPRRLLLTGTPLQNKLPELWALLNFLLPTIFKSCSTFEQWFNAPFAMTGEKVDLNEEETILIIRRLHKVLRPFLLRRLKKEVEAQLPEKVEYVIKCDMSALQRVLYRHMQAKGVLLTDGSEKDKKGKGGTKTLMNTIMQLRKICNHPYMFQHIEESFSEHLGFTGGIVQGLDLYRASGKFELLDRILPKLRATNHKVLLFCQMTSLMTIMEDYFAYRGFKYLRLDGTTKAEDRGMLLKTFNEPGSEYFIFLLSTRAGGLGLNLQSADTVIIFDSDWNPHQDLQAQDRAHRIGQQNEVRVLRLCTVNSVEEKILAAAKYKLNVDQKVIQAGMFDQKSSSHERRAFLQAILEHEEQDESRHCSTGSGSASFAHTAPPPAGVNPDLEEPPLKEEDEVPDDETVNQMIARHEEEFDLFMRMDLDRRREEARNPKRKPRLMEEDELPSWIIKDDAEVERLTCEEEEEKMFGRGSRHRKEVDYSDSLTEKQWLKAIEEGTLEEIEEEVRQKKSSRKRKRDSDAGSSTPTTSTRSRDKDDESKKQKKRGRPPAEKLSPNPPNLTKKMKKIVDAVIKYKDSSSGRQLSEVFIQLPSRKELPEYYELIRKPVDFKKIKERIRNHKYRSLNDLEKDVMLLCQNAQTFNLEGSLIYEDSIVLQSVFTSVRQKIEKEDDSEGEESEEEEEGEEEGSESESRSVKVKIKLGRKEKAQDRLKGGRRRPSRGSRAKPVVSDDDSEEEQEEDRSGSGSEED
Procedure: as §1
HiBiT peptide knock-in of SMARCA2 in LgBiT expressing HEK293T cells was performed by CRISPR-mediated tagging system as described Promega. […] SMARCA2-HiBiT knock-in Hela monoclonal cell (CS302366) and SMARCA4-HiBiT knock-in Hela monoclonal cell (CS3023226) were purchased from Promega.
as §2
Remove appropriate volume of resuspended cells from culture flask to accommodate 2500 cells/well @ 20 μL/well. […] Spin down at 1000 rpm for 5 min using tabletop centrifuge (SPINCHRON 15, Beckman).
Dispense test compounds onto plates using digital liquid dispenser (D300E, Tecan). Incubate plates in humidified tissue culture incubator @37° C. for 18 hours. […] Raw data files and compound information reports are swept into centralized data lake and deconvoluted using automated scripts designed by TetraScience, Inc. Data analysis, curve-fitting and reporting done in Dotmatics Informatics Suite using Screening Ultra module.

T1 sequence (P51531 whole entry): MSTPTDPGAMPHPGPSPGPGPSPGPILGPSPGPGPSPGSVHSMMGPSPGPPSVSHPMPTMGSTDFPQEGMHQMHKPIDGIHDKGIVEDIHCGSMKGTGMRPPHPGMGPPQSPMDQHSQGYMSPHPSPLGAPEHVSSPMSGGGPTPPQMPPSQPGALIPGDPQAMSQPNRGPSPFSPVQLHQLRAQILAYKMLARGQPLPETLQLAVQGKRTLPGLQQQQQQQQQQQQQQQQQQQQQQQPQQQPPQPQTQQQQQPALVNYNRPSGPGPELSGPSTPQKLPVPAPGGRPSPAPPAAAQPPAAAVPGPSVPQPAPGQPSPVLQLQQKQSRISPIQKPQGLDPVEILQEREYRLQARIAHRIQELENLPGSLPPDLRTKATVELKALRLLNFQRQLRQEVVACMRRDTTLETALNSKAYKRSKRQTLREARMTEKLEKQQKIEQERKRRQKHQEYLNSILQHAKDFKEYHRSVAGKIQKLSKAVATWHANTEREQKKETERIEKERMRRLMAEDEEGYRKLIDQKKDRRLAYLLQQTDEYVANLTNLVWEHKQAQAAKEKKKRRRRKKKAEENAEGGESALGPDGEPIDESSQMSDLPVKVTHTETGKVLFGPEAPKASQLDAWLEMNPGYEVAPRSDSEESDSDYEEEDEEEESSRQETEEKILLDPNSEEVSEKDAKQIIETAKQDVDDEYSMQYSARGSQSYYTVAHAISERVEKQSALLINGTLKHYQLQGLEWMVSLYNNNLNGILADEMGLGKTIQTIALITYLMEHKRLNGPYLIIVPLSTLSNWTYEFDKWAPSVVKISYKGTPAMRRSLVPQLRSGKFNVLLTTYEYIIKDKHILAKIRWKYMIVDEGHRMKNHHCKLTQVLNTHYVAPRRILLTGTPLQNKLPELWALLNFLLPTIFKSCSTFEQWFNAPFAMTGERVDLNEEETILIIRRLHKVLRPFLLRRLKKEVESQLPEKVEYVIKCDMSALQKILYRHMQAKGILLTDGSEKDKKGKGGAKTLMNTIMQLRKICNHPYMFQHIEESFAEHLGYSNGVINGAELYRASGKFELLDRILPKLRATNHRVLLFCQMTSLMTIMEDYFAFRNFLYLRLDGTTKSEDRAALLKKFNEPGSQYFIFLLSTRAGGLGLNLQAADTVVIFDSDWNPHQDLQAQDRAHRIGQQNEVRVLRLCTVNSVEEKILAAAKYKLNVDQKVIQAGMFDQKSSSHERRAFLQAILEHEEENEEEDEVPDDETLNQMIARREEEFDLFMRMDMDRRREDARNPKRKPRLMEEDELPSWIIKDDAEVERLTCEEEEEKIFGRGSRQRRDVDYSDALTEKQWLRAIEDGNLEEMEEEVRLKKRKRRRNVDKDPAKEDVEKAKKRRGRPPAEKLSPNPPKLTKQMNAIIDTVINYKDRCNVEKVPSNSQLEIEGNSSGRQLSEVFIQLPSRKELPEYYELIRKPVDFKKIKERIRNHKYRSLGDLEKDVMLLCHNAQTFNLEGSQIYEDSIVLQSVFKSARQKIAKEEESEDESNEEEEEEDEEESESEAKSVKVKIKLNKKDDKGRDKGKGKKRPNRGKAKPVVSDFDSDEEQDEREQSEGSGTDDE

In the case of `Cc1cc(O[C@@H]2C[C@H]3CNc4nnc(-c5cccc(F)c5O)cc4N3C2)ccc1CN1CCN(c2ccc3c(c2)C(=O)N(C2CCC(=O)NC2=O)C3)CC1` (stereo partly drawn) [Example 36, 3-(6-(4-(4-(((6aS,8R)-2-(3-fluoro-2-hydroxyphenyl)-5,6,6a,7,8,9-hexahydro-pyrrolo[1′,2′:4,5]pyrazino[2,3-c]pyridazin-8-yl)oxy)-2-methylbenzyl)piperazin-1-yl)-1-oxoisoindolin-2-yl)piperidine-2,6-dione], the DC50 [1] is reported as less than 0.1 µM, the Dmax [1] is reported as greater than 75% and the DC50 [2] is reported as less than 0.1 µM. For the same compound, the Dmax [2] was greater than 75%.

`CC[C@@]12CNc3nnc(-c4cccc(F)c4O)cc3N1C[C@H](Oc1cnc(CN3CCN(c4ccc5c(c4)C(=O)N([C@H]4CCC(=O)NC4=O)C5)CC3)c(C)n1)C2` [Example 57, (S)-3-(6-(4-((5-(((6aR,8R)-6a-ethyl-2-(3-fluoro-2-hydroxyphenyl)-5,6,6a,7,8,9-hexahydropyrrolo[1′,2′:4,5]pyrazino[2,3-c]pyridazin-8-yl)oxy)-3-methylpyrazin-2-yl)methyl)piperazin-1-yl)-1-oxoisoindolin-2-yl)piperidine-2,6-dione] gave a DC50 [1] of less than 0.1 µM, a Dmax [1] greater than 75% and a DC50 [2] of 0.1 to 1 µM. The Dmax [2] was less than 50%.

`CC[C@@]12CNc3nnc(-c4cccc(Cl)c4O)cc3N1C[C@H](Oc1cc(C)c(CN3CCC(c4ccc5c(c4)C(=O)N([C@H]4CCC(=O)NC4=O)C5)CC3)cn1)C2` [Example 100, (S)-3-(6-(1-((6-(((6aR,8R)-2-(3-chloro-2-hydroxyphenyl)-6a-ethyl-5,6,6a,7,8,9-hexahydropyrrolo[1′,2′:4,5]pyrazino[2,3-c]pyridazin-8-yl)oxy)-4-methylpyridin-3-yl)methyl)piperidin-4-yl)-1-oxoisoindolin-2-yl)piperidine-2,6-dione] gave a DC50 [1] of less than 0.1 µM, a Dmax [1] greater than 75% and a DC50 [2] of 0.1 to 1 µM. For the same compound, the Dmax [2] was less than 50%.

`CCc1cc(CN2CCN(c3ccc4c(c3)C(=O)N([C@H]3CCC(=O)NC3=O)C4)CC2)cnc1O[C@H]1CN2c3cc(-c4cccc(F)c4O)nnc3NC[C@]2(C(F)F)C1` [Example 47, (S)-3-(6-(4-((6-(((6aS,8R)-6a-(difluoromethyl)-2-(3-fluoro-2-hydroxyphenyl)-5,6,6a,7,8,9-hexahydropyrrolo [1′,2′:4,5]pyrazino[2,3-c]pyridazin-8-yl)oxy)-5-ethylpyridin-3-yl)methyl)piperazin-1-yl)-1-oxoisoindolin-2-yl)piperidine-2,6-dione] gave a DC50 [1] of less than 0.1 µM, a Dmax [1] greater than 75% and a DC50 [2] of less than 0.1 µM. The Dmax [2] was greater than 75%.

Work on `CCc1nc(CN2CCN(c3ccc4c(c3)C(=O)N([C@H]3CCC(=O)NC3=O)C4)CC2)cnc1O[C@H]1CN2c3cc(-c4cccc(F)c4O)nnc3NC[C@@]2(CF)C1` [Example 67, (S)-3-(6-(4-((6-ethyl-5-(((6aR,8R)-2-(3-fluoro-2-hydroxyphenyl)-6a-(fluoromethyl)-5,6,6a,7,8,9-hexahydropyrrolo[1′,2′:4,5]pyrazino[2,3-c]pyridazin-8-yl)oxy)pyrazin-2-yl)methyl)piperazin-1-yl)-1-oxoisoindolin-2-yl)piperidine-2,6-dione] yielded a DC50 [1] of less than 0.1 µM, a Dmax [1] greater than 75% and a DC50 [2] greater than 1 µM. The Dmax [2] was less than 50%.

For `Cc1cc(O[C@@H]2C[C@@H]3CNc4nnc(-c5cc(F)cc(F)c5O)cc4N3C2)ncc1CN1CCN(c2ccc3c(c2)C(=O)N(C2CCC(=O)NC2=O)C3)CC1` (stereo partly drawn) [Example 27, 3-(6-(4-((6-(((6aR,8R)-2-(3,5-difluoro-2-hydroxyphenyl)-5,6,6a,7,8,9-hexahydropyrrolo[1′,2′:4,5]pyrazino[2,3-c]pyridazin-8-yl)oxy)-4-methylpyridin-3-yl)methyl)piperazin-1-yl)-1-oxoisoindolin-2-yl)piperidine-2,6-dione], the DC50 [1] was less than 0.1 µM, the Dmax [1] was greater than 75% and the DC50 [2] was less than 0.1 µM. For the same compound, the Dmax [2] was 50 to 75%.

Work on `O=C1CCC(N2Cc3ccc(N4CCN(Cc5cnc(O[C@H]6CN7c8cc(-c9cccc(F)c9O)nnc8NC[C@]7(C(F)F)C6)c(F)c5)CC4)cc3C2=O)C(=O)N1` (stereo partly drawn) [Example 54, 3-(6-(4-((6-(((6aS,8R)-6a-(difluoromethyl)-2-(3-fluoro-2-hydroxyphenyl)-5,6,6a,7,8,9-hexahydropyrrolo[1′,2′:4,5]pyrazino[2,3-c]pyridazin-8-yl)oxy)-5-fluoropyridin-3-yl)methyl)piperazin-1-yl)-1-oxoisoindolin-2-yl)piperidine-2,6-dione] yielded a DC50 [1] of less than 0.1 µM, a Dmax [1] greater than 75% and a DC50 [2] of less than 0.1 µM. It also gave a Dmax [2] of 50 to 75%.

In the case of `Cc1c(CN2CCN(c3ccc4c(c3)C(=O)N([C@H]3CCC(=O)NC3=O)C4)CC2)cnc(O[C@H]2CN3c4cc(-c5cccc(F)c5O)nnc4NC[C@@]3(CF)C2)c1F` [Example 71, (S)-3-(6-(4-((5-fluoro-6-(((6aR,8R)-2-(3-fluoro-2-hydroxyphenyl)-6a-(fluoromethyl)-5,6,6a,7,8,9-hexahydropyrrolo[1′,2′:4,5]pyrazino[2,3-c]pyridazin-8-yl)oxy)-4-methylpyridin-3-yl)methyl)piperazin-1-yl)-1-oxoisoindolin-2-yl)piperidine-2,6-dione], the DC50 [1] is reported as less than 0.1 µM, the Dmax [1] is reported as greater than 75% and the DC50 [2] is reported as greater than 1 µM. The Dmax [2] was less than 50%.

Work on `O=C1CCC(N2Cc3ccc(N4CCC(Cn5cc(O[C@@H]6C[C@@H]7CNc8nnc(-c9cc(F)cc(F)c9O)cc8N7C6)cn5)CC4)cc3C2=O)C(=O)N1` (stereo partly drawn) [Example 39, 3-(6-(4-((4-(((6aR,8R)-2-(3,5-difluoro-2-hydroxyphenyl)-5,6,6a,7,8,9-hexahydropyrrolo[1′,2′:4,5]pyrazino[2,3-c]pyridazin-8-yl)oxy)-1H-pyrazol-1-yl)methyl)piperidin-1-yl)-1-oxoisoindolin-2-yl)piperidine-2,6-dione] yielded a DC50 [1] greater than 1 µM and a DC50 [2] greater than 1 µM.

`CC[C@@]12CNc3nnc(-c4cccc(F)c4O)cc3N1C[C@H](Oc1cc(C)c(CN3CCN(c4ccc5c(c4)C(=O)N(C4CCC(=O)NC4=O)C5)CC3)c(C)n1)C2` (stereo partly drawn) [Example 62, 3-(6-(4-((6-(((6aR,8R)-6a-ethyl-2-(3-fluoro-2-hydroxyphenyl)-5,6,6a,7,8,9-hexahydropyrrolo[1′,2′:4,5]pyrazino[2,3-c]pyridazin-8-yl)oxy)-2,4-dimethylpyridin-3-yl)methyl)piperazin-1-yl)-1-oxoisoindolin-2-yl)piperidine-2,6-dione] was tested, and the DC50 [1] was less than 0.1 µM, the Dmax [1] was greater than 75% and the DC50 [2] was 0.1 to 1 µM. For the same compound, the Dmax [2] was less than 50%.

`Cc1cc(O[C@H]2CN3c4cc(-c5cccc(F)c5O)nnc4NC[C@@]3(CF)C2)ncc1CN1CCN(c2ccc3c(c2)C(=O)N([C@H]2CCC(=O)NC2=O)C3)CC1` [Example 58, (S)-3-(6-(4-((6-(((6aR,8R)-2-(3-Fluoro-2-hydroxyphenyl)-6a-(fluoromethyl)-5,6,6a,7,8,9-hexahydropyrrolo[1′,2′:4,5]pyrazino[2,3-c]pyridazin-8-yl)oxy)-4-methylpyridin-3-yl)methyl)piperazin-1-yl)-1-oxoisoindolin-2-yl)piperidine-2,6-dione] showed a DC50 [1] of less than 0.1 µM, a Dmax [1] greater than 75% and a DC50 [2] greater than 1 µM. For the same compound, the Dmax [2] was less than 50%.

In the case of `CCc1nc(CN2CCC(c3ccc4c(c3)C(=O)N([C@H]3CCC(=O)NC3=O)C4)CC2)cnc1O[C@H]1CN2c3cc(-c4cccc(F)c4O)nnc3NC[C@@]2(CF)C1` [Example 68, (S)-3-(6-(1-((6-ethyl-5-(((6aR,8R)-2-(3-fluoro-2-hydroxyphenyl)-6a-(fluoromethyl)-5,6,6a,7,8,9-hexahydropyrrolo[1′,2′:4,5]pyrazino[2,3-c]pyridazin-8-yl)oxy)pyrazin-2-yl)methyl)piperidin-4-yl)-1-oxoisoindolin-2-yl)piperidine-2,6-dione], the DC50 [1] is reported as less than 0.1 µM, the Dmax [1] is reported as greater than 75% and the DC50 [2] is reported as greater than 1 µM. For the same compound, the Dmax [2] was less than 50%.
